Test results from the NIST ThermoML archive (doi:10.1016/j.jct.2005.05.004).

Columns and labels:
[1] = 298.15 K; 101.33 kPa; Liquid; Vibrating tube method
[2] = refractive index (Na D-line) (dimensionless); conditions: 298.15 K; 101.33 kPa; Liquid
[3] = xn = mol fraction of the nth substance listed; conditions: 298.15 K, 101.32 kPa, Liquid, Vibrating tube method
[4] = refractive index (Na D-line) (dimensionless); xn = mol fraction of the nth substance listed; conditions: 298.15 K, 101.32 kPa, Liquid

CCO [ethanol]
Conditions | mass density [kg/m3] | refractive index
[1] | 785.32 | –
[2] | – | 1.3592

CCI [iodoethane]
Conditions | mass density [kg/m3] | refractive index
[1] | 1923.75 | –
[2] | – | 1.5095

CCI [iodoethane] + CCCO
Conditions | mass density, [3] [kg/m3] | refractive index, [4]
x2 = 0.0332 | 1887.25 | 1.505
x2 = 0.0469 | 1872.23 | 1.503
x2 = 0.0528 | 1865.57 | 1.502
x2 = 0.2862 | 1611.62 | 1.4688
x2 = 0.3861 | 1501.9 | 1.4567
x2 = 0.4714 | 1407.06 | 1.447
x2 = 0.5981 | 1264.7 | 1.4299
x2 = 0.6984 | 1150.74 | 1.418
x2 = 0.7894 | 1046.25 | 1.4077
x2 = 0.8728 | 949.54 | 1.397
x2 = 0.9101 | 905.96 | 1.393

CCI [iodoethane] + CCO
Conditions | mass density, [3] [kg/m3] | refractive index, [4]
x2 = 0.0481 | 1880.86 | 1.503
x2 = 0.0942 | 1839.5 | 1.4971
x2 = 0.2302 | 1712.7 | 1.479
x2 = 0.29 | 1654.4 | 1.4701
x2 = 0.3989 | 1543.6 | 1.4535
x2 = 0.4889 | 1447.12 | 1.442
x2 = 0.6035 | 1316.7 | 1.4241
x2 = 0.687 | 1215.7 | 1.4093
x2 = 0.7935 | 1078.8 | 1.3929
x2 = 0.8994 | 933.27 | 1.3761
x2 = 0.9522 | 856.7 | 1.3675
